# Tested on: ruminal bacterial urease
# Experiment: urease activity
# Type: biochemical
smiles,measurement,value
C=CCS[S+]([O-])CC=C (stereo not shown) [allicin],IC50,126.8 ± 1.2 µM

# Source: article PMC12083136 (Microbiome, 2025)
